Test results published in patent US20120004282A1, “RNA Interference Mediated Inhibition of the Intercellular Adhesion Molecule 1 (ICAM-1) Gene Expression Using Short Interfering Nucleic Acid (siNA)” (Merck Sharp & Dohme Corp,, priority 2009, published 2012).
[invAb] = inverted abasic unit; m = 2'-O-methyl; r = 2'-OH (RNA); f = 2'-fluoro

Columns and labels:
Type in all cases: cell-based, human
ICAM-1 mRNA = ICAM-1 mRNA knock-down in transfected Calu-1 cells (Taqman RT-PCR); conditions: for % KD Human: Calu-1 cells, 10 nM siNA, 24 hrs post-transfection, relative to non-targeting control; for % KD Human / % KD ICAM-1 10 nM / % KD at 10 nM / Max % KD in DRC: mean ± S.D.; for IC50: ICAM-1 mRNA knockdown, 12 concentrations 0.083 fM to 30 nM; for IC50 / % KD at 10 nM / Max % KD in DRC: human cells; for % KD ICAM-1 10 nM / % KD at 10 nM / Max % KD in DRC: ICAM-1 mRNA; for % KD ICAM-1 10 nM: three independent experiments; for % KD at 10 nM: three separate experiments; for Max % KD in DRC: dose response 0.083 fM to 30 nM
OAS1 mRNA [1] = assay: Membrane and endosomal TLR3 mediated immunostimulation, OAS1 mRNA increase in Calu 1 cells; conditions: Up to 100 nM
Protocol: Human lung epithelial carcinoma (Calu-1) cells were grown at 37 degrees in the presence of 5% CO2 and cultured in […] supplemented with 10% fetal bovine serum, glutamine and antibiotics.
(§1) A series of probes and primers were used for the detection of mRNA transcripts of ICAM-1, OAS1, and GAPDH (as control/normalisation) in the human cell lines. The assays were performed on an ABI 7900HT instrument according to the manufacturer's instructions.
(§2) With TaqMan data, critical threshold values (Ct) were converted to copy numbers corresponding to the particular gene analysed in each well of the 384 well plate. Six identical wells were prepared in each plate for a given treatment. […] Determination of the percentage coefficient of variation (CV) (% C.V.=[standard deviation/average]*100) allowed the omitting of wells whose value was an outlier (so that % C.V.<25). Relative abundance (aka relative expression) of a gene was determined by dividing the mean copy number of that gene with its GAPDH counterpart in that particular sample.
(§3) Calu-1 or NHBE cell were treated as above in Example 2 and used for the measurement of endosomal TLR3 mediated immunostimulation, with the inclusion of polyI:C as a positive control for OAS1 mRNA upregulation. For the measurement of membrane bound TLR3 mediated immunostimulation the Calu 1 cells were cultured at 12000 cells/per 96 well and siNAs administered in PBS in the absence of a delivery vehicle at a concentration of 100 nM, 30 nM, 10 nM, 3 nM, 1 nM, and 0.3 nM.

OAS1 mRNA [2] = assay: Endosomal TLR3 mediated immunostimulation, OAS1 mRNA increase in NHBE cells; conditions: Up to 100 nM, siNA formulated with delivery vehicle
Protocol: as §1, §2, §3
The endosomal TLR3 mediated immunostimulation was also measured by recording the percent increase in OAS1 mRNA levels when the NHBE cells were transfected with the siNAs that had been formulated with the delivery vehicle (the Gemini surfactant GSC170 Dab—example 37 in WO03/82809) (percent increase in OAS1 mRNA levels relative to the Gemini delivery vehicle control). The TLR3 agonist Poly I: C is used as a positive control for OAS1 mRNA induction.

Row | Substance | % KD Human (ICAM-1 mRNA) | IC50 (ICAM-1 mRNA) | % KD ICAM-1 10 nM (ICAM-1 mRNA) | % KD at 10 nM (ICAM-1 mRNA) | Max % KD in DRC (ICAM-1 mRNA) | Membrane & Endosomal TLR3 mediated Immunostimulation OAS1 mRNA increase Calu 1 Cells (OAS1 mRNA [1]) | Endosomal TLR3 mediated Immunostimulation OAS1 mRNA increase NHBE cells n = 3donors (OAS1 mRNA [2])
1 | 29285-DC: siNA duplex, ICAM-1 target site 537 (h); sense B GGAAcAAccGGAAGGuGuA TTB; antisense UACAccuuccGGuuGuuccUU (sense GGAACAACCGGAAGGUGUATT; antisense UACACCUUCCGGUUGUUCCUU; sense: DNA at AGT, 2'-fluoro at CU, [invAb] at 5' end, 3' end, backbone not given here; antisense: sugars from the 5' end rrrmffffffmmffmffffmm, backbone not given here) | 85 ± 6% | 0.394 nM | 85 ± 6% | 85 ± 6% | 70 ± 15% | No significant effect | No significant effect
2 | 29286-DC: siNA duplex, ICAM-1 target site 1838 (h); sense B cGGAAGAucAAGAAAuAcA TTB; antisense UGUAuuucuuGAucuuccGUU (sense CGGAAGAUCAAGAAAUACATT; antisense UGUAUUUCUUGAUCUUCCGUU; sense: DNA at AGT, 2'-fluoro at CU, [invAb] at 5' end, 3' end, backbone not given here; antisense: sugars from the 5' end rrrmffffffmmffffffmmm, backbone not given here) | 89 ± 3% | 0.433 ± 0.468 nM | 89 ± 3% | 89 ± 3% | 81 ± 6% | No significant effect | No significant effect
3 | 29282-DC: siNA duplex, ICAM-1 target site 2113 (h); sense B cGcAucuGAucuGuAGucA TTB; antisense UGAcuAcAGAucAGAuGcGUU (sense CGCAUCUGAUCUGUAGUCATT; antisense UGACUACAGAUCAGAUGCGUU; sense: DNA at AGT, 2'-fluoro at CU, [invAb] at 5' end, 3' end, backbone not given here; antisense: sugars from the 5' end rrrffmfmmmffmmmfmfmmm, backbone not given here) | 95 ± 2% | 0.086 ± 0.047 nM | 95 ± 2% | 95 ± 2% | 88 ± 4% | No significant effect | No significant effect
4 | 29284-DC: siNA duplex, ICAM-1 target site 1141 (h); sense B cucAGucAGuGuGAccGcA TTB; antisense UGCGGucAcAcuGAcuGAGUU (sense CUCAGUCAGUGUGACCGCATT; antisense UGCGGUCACACUGACUGAGUU; sense: DNA at AGT, 2'-fluoro at CU, [invAb] at 5' end, 3' end, backbone not given here; antisense: sugars from the 5' end rrrmmffmfmffmmffmmmmm, backbone not given here) | 85 ± 1% | 0.281 ± 0.233 nM | 85 ± 1% | 85 ± 1% | 73 ± 4% | No significant effect | No significant effect
5 | 29288-DC: siNA duplex, ICAM-1 target site 2046 (h); sense B cAuuGuccucAGucAGAuA TTB; antisense UAUcuGAcuGAGGAcAAuGUU (sense CAUUGUCCUCAGUCAGAUATT; antisense UAUCUGACUGAGGACAAUGUU; sense: DNA at AGT, 2'-fluoro at CU, [invAb] at 5' end, 3' end, backbone not given here; antisense: sugars from the 5' end rrrffmmffmmmmrfmmfmmm, backbone not given here) | 86 ± 3% | 0.215 ± 0.129 nM | 86 ± 3% | 86 ± 3% | 78 ± 5% | No significant effect | No significant effect
6 | 48722-DC: siNA duplex, ICAM-1 target site 2240 (h); sense B GAcAuAcAAcuGGGAAAuA TTB; antisense UAUuucccAGuuGuAuGucUU (sense GACAUACAACUGGGAAAUATT; antisense UAUUUCCCAGUUGUAUGUCUU; sense: DNA at AGT, 2'-fluoro at CU, [invAb] at 5' end, 3' end, backbone not given here; antisense: sugars from the 5' end rrrfffffmmffmfmfmffmm, backbone not given here) | 92 ± 1% | 0.098 ± 0.05 nM | 92 ± 1% | 92 ± 1% | 85 ± 1% | No significant effect | No significant effect
